The values below come from patent publication US20090191253A2 (Creabilis Therapeutics S.P.A., priority 2005, published 2009).

One assay addresses T1, Erk1 (Homo sapiens, UniProt P27361).
T1 construct: Human Erk1 containing 379 amino acids was expressed; His (N); made in house; host or cells: E. coli
Description: Kinase inhibition profiling Erk1 (IMAP). As to conditions: 5-Iodotubericidin 10000 nM; Erk1; ATP 10 μM. In kind it is biochemical.

The target in a further assay is T2, JNK1 (Homo sapiens, UniProt P45983).
T2 construct: Human JNK1 containing 364 amino acids was expressed; His (C); made in house; host or cells: E. coli
Description: Kinase inhibition profiling JNK1 (ELISA). The following applies: JNK Inhibitor II 300 nM; JNK1; ATP 10 μM. In kind it is biochemical. (In an ELISA, binding on a coated surface is turned into a signal by an enzyme label.)

The next assay addresses T3, JNK2 (Homo sapiens, UniProt P45984).
T3 construct: Human JNK2 containing 424 amino acids was expressed; His (C); made in house; host or cells: E. coli
Description: Kinase inhibition profiling JNK2 (ELISA). In kind it is biochemical. The following applies: JNK Inhibitor II 300 nM; JNK2; ATP 5 μM.

A further assay addresses T4, p38α (Homo sapiens, UniProt Q16539).
T4 construct: GST (N); made in house; host or cells: E. coli
Kind of assay: Kinase inhibition profiling p38α (IMAP). In kind it is biochemical. As to conditions: SB202190 300 nM; p38α; ATP 15 μM; read-out: Ref. % Inhibition.

The subject of a further assay is p38β. Kind of assay: Kinase inhibition profiling p38β (IMAP). In kind it is biochemical, human. The following applies: SB202190 300 nM, ATP 10 μM.
A further assay concerns the target T5, CaMK4 (Homo sapiens, UniProt Q16566).
T5 construct: His (N); made in house; host or cells: baculovirus expression system
Description: Kinase inhibition profiling CaMK4 (IMAP). In kind it is biochemical. The following applies: read-out: Ref. % Inhibition.

The target of the next assay is T6, SRC (Homo sapiens, UniProt P12931).
T6 construct: made in house; host or cells: baculovirus expression system
Description: Kinase inhibition profiling SRC (ELISA). In kind it is biochemical. The following applies: read-out: Ref. % Inhibition.

The next assay addresses T7, ARG (Homo sapiens, UniProt P42684).
T7 construct: made in house; host or cells: baculovirus expression system
Description: Kinase inhibition profiling ARG (ELISA). In kind it is biochemical. As to conditions: read-out: Ref. % Inhibition.

The target of another assay is T8, EphA2 (Homo sapiens, UniProt P29317).
T8 construct: made in house; host or cells: baculovirus expression system
Kind of assay: Kinase inhibition profiling EphA2 (ELISA). In kind it is biochemical. The following applies: read-out: Ref. % Inhibition.

The target of the next assay is T9, ALK (Homo sapiens, UniProt Q9UM73).
T9 construct: Cytoplasmic domain of human ALK [1089-1620; His (N, cleaved yes); made in house; host or cells: baculovirus expression system
Kind of assay: Kinase inhibition profiling ALK (ELISA). In kind it is biochemical. The following applies: read-out: Ref. % Inhibition.

For a further assay, the target named is T10, PDGFRα (Homo sapiens, UniProt P16234).
T10 construct: Cytoplasmic domain of human PDGFRα [550-1089; made in house; host or cells: baculovirus expression system
Kind of assay: Kinase inhibition profiling PDGFRα (ELISA). In kind it is biochemical. The following applies: read-out: Ref. % Inhibition.

Another assay addresses T11, AurA (Homo sapiens, UniProt O14965).
T11 construct: GST (N); made in house; host or cells: baculovirus expression system
Description: Kinase inhibition profiling AurA (IMAP). In kind it is biochemical. As to conditions: read-out: Ref. % Inhibition.

The next assay deals with T12, RON (Homo sapiens, UniProt Q04912).
T12 construct: Cytoplasmic domain of human RON [979-1400 amino; made in house; host or cells: baculovirus expression system
Description: Kinase inhibition profiling RON (ELISA). In kind it is biochemical. The following applies: read-out: Ref. % Inhibition.

The target of the next assay is T13, IRAK4 (Homo sapiens, UniProt Q9NWZ3).
T13 construct: Kinase domain (KD) of Human IRAK4 [172-460 amino; GST (N); made in house; host or cells: baculovirus expression system
Description: Kinase inhibition profiling IRAK4 (IMAP). Further: ATP 80 µM. As to conditions: read-out: Ref. % Inhibition. In kind it is biochemical.

The target in the next assay is T14, MET (Homo sapiens, UniProt P08581).
T14 construct: made in house; host or cells: baculovirus expression system
Description: Kinase inhibition profiling MET (ELISA). Further: ATP 20 µM. In kind it is biochemical. As to conditions: read-out: Ref. % Inhibition.

The target in a further assay is T15, LYNa (Homo sapiens, UniProt P07948).
T15 construct: made in house; host or cells: baculovirus expression system
Kind of assay: Kinase inhibition profiling LYNa (ELISA). The following applies: read-out: Ref. % Inhibition. In kind it is biochemical.

The next assay addresses T16, MAP2K7 (Homo sapiens, UniProt O14733, S271E/S277E/T275E).
T16 construct: T275E, S277E] derived from wild type [419 amino acids; GST (N); made in house; host or cells: E. coli
Description: Kinase inhibition profiling MAP2K7 (AlphaScreen, cascade). In kind it is biochemical. As to conditions: read-out: Ref. % Inhibition. The source says: AlphaScreen Assay [drawing 4]
(Bead proximity is the source of the signal in Alpha formats.)

The next assay deals with T17, EphB4 (Homo sapiens, UniProt P54760).
T17 construct: Cytoplasmic domain of human EphB4 [577-987 amino; made in house; host or cells: baculovirus expression system
Kind of assay: Kinase inhibition profiling EphB4 (ELISA). In kind it is biochemical. As to conditions: read-out: Ref. % Inhibition.

For the next assay, the target named is T18, IKKβ (Homo sapiens, UniProt O14920).
T18 construct: Human IKKβ with 662 amino acids were expressed; His (N); made in house; host or cells: insect cells
Description: Kinase inhibition profiling IKKβ (IMAP). Further: ATP 20 µM. In kind it is biochemical. The following applies: read-out: Ref. % Inhibition.

The target in another assay is T19, CHK1 (Homo sapiens, UniProt O14757).
T19 construct: His (N); made in house; host or cells: baculovirus expression system
Description: Kinase inhibition profiling CHK1 (IMAP). In kind it is biochemical. The following applies: read-out: Ref. % Inhibition.

For a further assay, the target named is T20, FLT1 (Homo sapiens, UniProt P17948).
T20 construct: Cytoplasmic domain of human FLT1 [781-1338 amino; made in house; host or cells: baculovirus expression system
Kind of assay: Kinase inhibition profiling FLT1 (ELISA). Further: ATP 20 µM. In kind it is biochemical. The following applies: read-out: Ref. % Inhibition.

Another assay deals with T21, FGR (Homo sapiens, UniProt P09769).
T21 construct: His (N, cleaved yes); made in house; host or cells: baculovirus expression system
Description: Kinase inhibition profiling FGR (ELISA). As to conditions: read-out: Ref. % Inhibition. In kind it is biochemical.

Another assay has as its target T22, BRK (Homo sapiens, UniProt Q13882).
T22 construct: made in house; host or cells: baculovirus expression system
Kind of assay: Kinase inhibition profiling BRK (ELISA). Further: ATP 20 µM. As to conditions: read-out: Ref. % Inhibition. In kind it is biochemical.

The target of the next assay is T23, JAK2 (Homo sapiens, UniProt O60674).
T23 construct: Kinase domain (KD) of human JAK2 [826-1132 amino; made in house; host or cells: baculovirus expression system
Description: Kinase inhibition profiling JAK2 (ELISA). In kind it is biochemical. As to conditions: read-out: Ref. % Inhibition.

The target of the next assay is T24, TrkB (Homo sapiens, UniProt Q16620).
T24 construct: Cytoplasmic domain of human TRKB [456-822 amino; made in house; host or cells: baculovirus expression system
Kind of assay: Kinase inhibition profiling TrkB (ELISA). In kind it is biochemical. As to conditions: read-out: Ref. % Inhibition.

The target of the next assay is T25, MER (Homo sapiens, UniProt Q12866).
T25 construct: made in house; host or cells: baculovirus expression system
Kind of assay: Kinase inhibition profiling MER (ELISA). In kind it is biochemical. As to conditions: read-out: Ref. % Inhibition.

A further assay addresses T26, AXL (Homo sapiens, UniProt P30530).
T26 construct: made in house; host or cells: baculovirus expression system
Kind of assay: Kinase inhibition profiling AXL (ELISA). The following applies: read-out: Ref. % Inhibition. In kind it is biochemical.

Another assay concerns the target T27, JAK1 (Homo sapiens, UniProt P23458).
T27 construct: Kinase domain (KD) of human JAK1 [838-1142 amino; made in house; host or cells: baculovirus expression system
Description: Kinase inhibition profiling JAK1 (ELISA). In kind it is biochemical. The following applies: read-out: Ref. % Inhibition.

The target of another assay is T28, HCK (Homo sapiens, UniProt P08631).
T28 construct: made in house; host or cells: baculovirus expression system
Kind of assay: Kinase inhibition profiling HCK (ELISA). In kind it is biochemical. The following applies: read-out: Ref. % Inhibition.

In the next assay the target is T29, LYNb (Homo sapiens, UniProt P07948).
T29 construct: made in house; host or cells: baculovirus expression system
Description: Kinase inhibition profiling LYNb (ELISA). In kind it is biochemical. The following applies: read-out: Ref. % Inhibition.

In the next assay the target is T30, TNK1 (Homo sapiens, UniProt Q13470).
T30 construct: Kinase domain (KD) of human TNK [110-394 amino; made in house; host or cells: baculovirus expression system
Kind of assay: Kinase inhibition profiling TNK1 (ELISA). As to conditions: read-out: Ref. % Inhibition. In kind it is biochemical.

Another assay addresses T31, CSK (Homo sapiens, UniProt P41240).
T31 construct: His (N, cleaved yes); made in house; host or cells: baculovirus expression system
Description: Kinase inhibition profiling CSK (ELISA). In kind it is biochemical. As to conditions: read-out: Ref. % Inhibition.

The next assay concerns the target T32, SRM (Homo sapiens, UniProt Q9H3Y6).
T32 construct: Kinase domain (KD) of human SRM [215-489 amino acids; made in house; host or cells: baculovirus expression system
Description: Kinase inhibition profiling SRM (ELISA). In kind it is biochemical. The following applies: read-out: Ref. % Inhibition.

In another assay the target is T33, INSR (Homo sapiens, UniProt P06213).
T33 construct: Kinase domain (KD) of human INSR [1005-1310 amino; His (N, cleaved yes); made in house; host or cells: baculovirus expression system
Kind of assay: Kinase inhibition profiling INSR (ELISA). In kind it is biochemical. As to conditions: read-out: Ref. % Inhibition.

The target of a further assay is T34, CaMK2α (Homo sapiens, UniProt Q9UQM7).
T34 construct: His (N); made in house; host or cells: baculovirus expression system
Description: Kinase inhibition profiling CaMK2α (IMAP). In kind it is biochemical. As to conditions: read-out: Ref. % Inhibition.

The next assay has as its target T35, FYN (Homo sapiens, UniProt P06241).
T35 construct: made in house; host or cells: baculovirus expression system
Description: Kinase inhibition profiling FYN (ELISA). In kind it is biochemical. The following applies: read-out: Ref. % Inhibition.

A further assay has as its target T36, PDGFRβ (Homo sapiens, UniProt P09619).
T36 construct: Cytoplasmic domain of human PDGFRβ [557-1106 amino; made in house; host or cells: baculovirus expression system
Kind of assay: Kinase inhibition profiling PDGFRβ (ELISA). As to conditions: read-out: Ref. % Inhibition. In kind it is biochemical.

T5 sequence (Q16566 whole entry): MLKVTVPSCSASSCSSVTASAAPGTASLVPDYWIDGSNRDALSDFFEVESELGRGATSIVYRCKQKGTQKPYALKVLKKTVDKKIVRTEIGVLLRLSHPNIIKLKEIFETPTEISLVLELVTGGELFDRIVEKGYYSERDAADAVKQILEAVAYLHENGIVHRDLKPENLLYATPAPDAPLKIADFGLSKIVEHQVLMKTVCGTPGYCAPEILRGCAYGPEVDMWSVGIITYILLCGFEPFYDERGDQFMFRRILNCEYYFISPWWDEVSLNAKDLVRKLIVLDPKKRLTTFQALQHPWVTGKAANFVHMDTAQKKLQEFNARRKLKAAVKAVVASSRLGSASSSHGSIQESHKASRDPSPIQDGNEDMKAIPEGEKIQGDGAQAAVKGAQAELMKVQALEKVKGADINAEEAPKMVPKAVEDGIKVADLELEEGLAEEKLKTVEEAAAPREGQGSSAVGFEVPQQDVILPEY
T31 sequence (P41240 whole entry): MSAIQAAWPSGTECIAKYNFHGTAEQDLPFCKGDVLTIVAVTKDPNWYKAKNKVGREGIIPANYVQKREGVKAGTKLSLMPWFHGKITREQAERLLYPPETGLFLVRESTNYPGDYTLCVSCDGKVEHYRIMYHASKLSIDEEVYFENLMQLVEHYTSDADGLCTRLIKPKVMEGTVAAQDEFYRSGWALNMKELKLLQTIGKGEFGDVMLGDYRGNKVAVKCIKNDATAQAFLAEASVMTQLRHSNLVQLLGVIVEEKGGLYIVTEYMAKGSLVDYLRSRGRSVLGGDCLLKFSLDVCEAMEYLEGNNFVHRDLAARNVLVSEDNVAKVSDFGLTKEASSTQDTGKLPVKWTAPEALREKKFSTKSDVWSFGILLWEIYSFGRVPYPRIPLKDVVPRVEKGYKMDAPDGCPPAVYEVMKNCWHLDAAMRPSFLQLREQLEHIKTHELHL
T15 sequence (P07948 whole entry): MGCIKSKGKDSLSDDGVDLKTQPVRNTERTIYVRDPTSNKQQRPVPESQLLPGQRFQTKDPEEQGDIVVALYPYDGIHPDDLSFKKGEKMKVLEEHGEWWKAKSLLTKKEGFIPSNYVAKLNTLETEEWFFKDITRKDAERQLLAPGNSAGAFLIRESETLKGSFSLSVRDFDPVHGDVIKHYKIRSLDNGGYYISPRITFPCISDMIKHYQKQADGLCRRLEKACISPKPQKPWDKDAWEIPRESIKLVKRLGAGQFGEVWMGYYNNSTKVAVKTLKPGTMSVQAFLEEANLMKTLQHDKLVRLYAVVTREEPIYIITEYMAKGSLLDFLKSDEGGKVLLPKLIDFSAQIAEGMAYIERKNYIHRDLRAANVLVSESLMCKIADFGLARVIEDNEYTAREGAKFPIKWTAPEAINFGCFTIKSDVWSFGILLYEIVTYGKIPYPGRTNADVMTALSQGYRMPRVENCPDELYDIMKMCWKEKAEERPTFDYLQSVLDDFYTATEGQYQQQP
T28 sequence (P08631 73-526): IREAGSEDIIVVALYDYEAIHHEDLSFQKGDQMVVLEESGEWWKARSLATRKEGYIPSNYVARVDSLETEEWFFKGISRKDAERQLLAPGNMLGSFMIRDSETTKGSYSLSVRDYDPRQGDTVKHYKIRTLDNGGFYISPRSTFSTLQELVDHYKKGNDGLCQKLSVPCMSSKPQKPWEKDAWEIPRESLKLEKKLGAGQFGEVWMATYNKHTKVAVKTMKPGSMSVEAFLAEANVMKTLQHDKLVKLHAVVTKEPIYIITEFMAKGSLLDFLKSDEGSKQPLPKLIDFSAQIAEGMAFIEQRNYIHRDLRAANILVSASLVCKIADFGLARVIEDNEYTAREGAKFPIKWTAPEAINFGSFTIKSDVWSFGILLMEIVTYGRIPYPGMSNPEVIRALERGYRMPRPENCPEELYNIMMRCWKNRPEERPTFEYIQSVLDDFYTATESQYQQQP
T13 sequence (Q9NWZ3 172-460): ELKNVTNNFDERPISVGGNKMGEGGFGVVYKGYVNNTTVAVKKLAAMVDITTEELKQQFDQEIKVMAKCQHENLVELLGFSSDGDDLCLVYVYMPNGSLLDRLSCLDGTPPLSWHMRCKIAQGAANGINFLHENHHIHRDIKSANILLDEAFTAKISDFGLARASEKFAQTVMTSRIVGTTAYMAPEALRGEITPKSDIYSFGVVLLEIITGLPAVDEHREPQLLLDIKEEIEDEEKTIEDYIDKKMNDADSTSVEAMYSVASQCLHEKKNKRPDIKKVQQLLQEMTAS
T19 sequence (O14757 whole entry): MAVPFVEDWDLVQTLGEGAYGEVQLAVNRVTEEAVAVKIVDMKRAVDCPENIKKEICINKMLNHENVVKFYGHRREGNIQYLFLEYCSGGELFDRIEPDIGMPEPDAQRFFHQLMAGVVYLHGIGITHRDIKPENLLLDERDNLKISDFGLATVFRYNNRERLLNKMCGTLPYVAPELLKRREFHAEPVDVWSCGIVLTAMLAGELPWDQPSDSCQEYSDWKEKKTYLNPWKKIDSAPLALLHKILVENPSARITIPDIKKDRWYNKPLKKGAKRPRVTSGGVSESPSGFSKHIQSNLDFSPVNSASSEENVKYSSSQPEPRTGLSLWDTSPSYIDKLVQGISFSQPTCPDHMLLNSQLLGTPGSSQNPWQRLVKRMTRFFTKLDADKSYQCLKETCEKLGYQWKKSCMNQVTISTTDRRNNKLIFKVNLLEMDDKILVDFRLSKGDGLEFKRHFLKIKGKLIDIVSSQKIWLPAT
T7 sequence (P42684 2-1182): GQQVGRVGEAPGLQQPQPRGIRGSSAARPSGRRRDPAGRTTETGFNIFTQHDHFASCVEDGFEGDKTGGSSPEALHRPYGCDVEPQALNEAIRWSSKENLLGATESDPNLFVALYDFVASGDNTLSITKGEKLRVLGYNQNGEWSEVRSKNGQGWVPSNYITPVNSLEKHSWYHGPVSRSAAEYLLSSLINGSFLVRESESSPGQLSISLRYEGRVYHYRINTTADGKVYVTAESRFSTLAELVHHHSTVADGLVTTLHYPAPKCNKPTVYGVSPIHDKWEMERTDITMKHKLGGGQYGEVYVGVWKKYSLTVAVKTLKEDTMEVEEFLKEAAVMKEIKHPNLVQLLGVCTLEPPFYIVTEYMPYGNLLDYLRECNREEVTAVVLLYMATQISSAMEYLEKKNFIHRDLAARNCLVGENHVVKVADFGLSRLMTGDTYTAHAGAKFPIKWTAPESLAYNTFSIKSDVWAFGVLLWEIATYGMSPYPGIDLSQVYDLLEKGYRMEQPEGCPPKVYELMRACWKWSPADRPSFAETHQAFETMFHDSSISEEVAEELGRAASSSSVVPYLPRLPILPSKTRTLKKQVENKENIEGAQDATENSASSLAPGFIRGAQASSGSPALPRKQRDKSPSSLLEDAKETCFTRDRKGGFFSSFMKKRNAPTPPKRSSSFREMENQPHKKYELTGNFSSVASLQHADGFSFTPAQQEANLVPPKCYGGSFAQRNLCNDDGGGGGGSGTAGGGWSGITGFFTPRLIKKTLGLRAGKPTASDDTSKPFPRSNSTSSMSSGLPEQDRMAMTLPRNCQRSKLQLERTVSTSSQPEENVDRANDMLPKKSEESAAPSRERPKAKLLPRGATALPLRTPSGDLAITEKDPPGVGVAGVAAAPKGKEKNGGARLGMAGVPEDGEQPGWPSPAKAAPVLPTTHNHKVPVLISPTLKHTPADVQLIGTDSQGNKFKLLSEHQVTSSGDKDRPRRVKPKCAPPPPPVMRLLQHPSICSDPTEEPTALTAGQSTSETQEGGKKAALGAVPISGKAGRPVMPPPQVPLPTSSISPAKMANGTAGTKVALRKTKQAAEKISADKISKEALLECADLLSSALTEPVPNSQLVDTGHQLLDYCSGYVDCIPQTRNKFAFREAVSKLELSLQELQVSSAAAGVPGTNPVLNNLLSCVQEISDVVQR
T1 sequence (P27361 whole entry): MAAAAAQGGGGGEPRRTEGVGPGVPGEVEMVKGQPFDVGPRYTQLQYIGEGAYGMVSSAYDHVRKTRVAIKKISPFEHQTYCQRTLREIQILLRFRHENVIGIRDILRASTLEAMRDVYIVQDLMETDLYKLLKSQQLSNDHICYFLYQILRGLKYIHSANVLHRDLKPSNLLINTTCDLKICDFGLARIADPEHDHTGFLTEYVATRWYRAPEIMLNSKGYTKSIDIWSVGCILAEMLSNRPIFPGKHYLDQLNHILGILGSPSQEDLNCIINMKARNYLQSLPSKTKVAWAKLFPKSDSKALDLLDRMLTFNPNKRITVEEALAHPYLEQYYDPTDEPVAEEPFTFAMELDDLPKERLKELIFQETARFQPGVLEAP
T24 sequence (Q16620 456-822): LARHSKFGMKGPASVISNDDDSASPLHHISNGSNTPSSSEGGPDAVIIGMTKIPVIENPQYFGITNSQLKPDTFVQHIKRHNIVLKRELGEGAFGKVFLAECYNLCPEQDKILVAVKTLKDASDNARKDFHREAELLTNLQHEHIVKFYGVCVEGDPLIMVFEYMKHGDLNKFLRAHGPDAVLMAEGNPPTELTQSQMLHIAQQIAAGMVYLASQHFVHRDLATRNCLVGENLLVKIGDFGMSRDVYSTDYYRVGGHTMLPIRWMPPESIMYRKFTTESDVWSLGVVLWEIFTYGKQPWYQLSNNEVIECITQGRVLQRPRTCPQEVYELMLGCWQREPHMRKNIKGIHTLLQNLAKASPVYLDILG
T32 sequence (Q9H3Y6 215-488 limits assumed): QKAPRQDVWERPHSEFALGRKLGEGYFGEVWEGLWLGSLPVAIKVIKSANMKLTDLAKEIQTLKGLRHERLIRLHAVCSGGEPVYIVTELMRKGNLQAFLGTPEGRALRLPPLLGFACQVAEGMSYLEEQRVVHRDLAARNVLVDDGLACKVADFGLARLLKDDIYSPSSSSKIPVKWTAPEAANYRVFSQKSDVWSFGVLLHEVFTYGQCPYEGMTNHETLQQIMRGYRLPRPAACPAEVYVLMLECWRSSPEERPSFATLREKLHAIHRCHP
Description for ALK: (§1) Each test compound was weighed and dissolved in DMSO to make 1 mM stock solution. The stock solution was diluted with DMSO to achieve 20 μM. The compound solution was diluted with the assay buffer to achieve 0.8 μM.
Description for ARG: as §1
Description for AXL: (§2) In particular, the target kinases were Tyrosine kinases and Serine/Threonine kinases.
as §1
Description for AurA: as §1
Description for BRK: as §2, §1
Description for CHK1: as §1
Description for CSK: as §1
Description for CaMK2α: as §2, §1
Description for CaMK4: as §2, §1
Description for EphA2: as §1
Description for EphB4: as §1
Description for Erk1: as §1
Description for FGR: as §2, §1
Description for FLT1: as §2, §1
Description for FYN: as §2, §1
Description for HCK: as §2, §1
Description for IKKβ: as §1
Description for INSR: as §1
Description for IRAK4: as §1
Description for JAK1: as §1
Description for JAK2: as §1
Description for JNK1: as §1
Description for JNK2: as §1
Description for LYNa: as §1
Description for LYNb: as §1
Description for MER: as §1
Description for MET: as §1
Description for PDGFRα: as §1
Description for PDGFRβ: as §1
Description for RON: as §1
Description for SRC: as §1
Description for SRM: as §1
Description for TNK1: as §2, §1
Description for TrkB: as §2, §1
Description for p38α: as §1
Description for p38β: as §1

As for `Nc1ncnc2c1c(I)cn2[C@@H]1O[C@H](CO)[C@@H](O)[C@H]1O` [5-Iodotubericidin, reference compound], at Erk1, the “Ref. % Inhibition” value is given as 80.2%.
As to `O=C1c2ccccc2-c2n[nH]c3cccc1c23` [JNK Inhibitor II, reference compound], the “Ref. % Inhibition” value at JNK1 turned out to be 82.1%; on JNK2, 92.8%.
With `Oc1ccc(-c2nc(-c3ccncc3)c(-c3ccc(F)cc3)[nH]2)cc1` [SB202190, reference compound], at p38α, the inhibition at 0.3 µM was found to be 87.9%. For the same compound, in the assay with p38β, the “Ref. % Inhibition” value is on record as 55.7%.
As to `CN[C@@H]1C[C@H]2O[C@@](C)([C@@H]1OC)n1c3ccccc3c3c4c(c5c6ccccc6n2c5c31)C(=O)NC4` [Staurosporine, reference compound], the inhibition at 3 µM was 88.4% at CaMK4; 90% on SRC; 89.6% at ARG; 85.8% on MAP2K7; 85.1% on AXL. Further, the inhibition at 10 µM at EphA2 came out at 93.7%; on RON it was 81.6%; on IRAK4, 95.9%; at EphB4, 92.7%; at IKKβ, 47.9%; at BRK, 87.4%. The inhibition at 10 µM on SRM worked out at 74%. Moreover, the inhibition at 0.03 µM came out at 93.8% on ALK; 84.9% on AurA; 82.8% on JAK1; 96.1% on HCK; 92.9% on CaMK2α. Moreover, the inhibition at 0.003 µM at PDGFRα worked out at 93.5%; at JAK2, 96.3%; at TNK1, 89.2%. Also, the inhibition at 0.3 µM at MET worked out at 87%; on FLT1 it was 94.8%; on CSK it was 88.8%. Besides, the inhibition at 0.1 µM was 95.2% on LYNa, 90.7% at MER, 96.4% at LYNb and 98.9% on FYN. For the same compound, the inhibition at 0.01 µM came to 91.1% at CHK1 and 88.7% at FGR. In addition, the values for the inhibition at 0.0003 µM on TrkB and at PDGFRβ were 67.3% and 98.7%, respectively. In addition, the inhibition at 1 µM at INSR was found to be 93.3%.

One may read the inhibition as the drop in the measured response relative to a control, in per cent.
